The results in this text go back to paper PMC10057480, “Expanding the Library of 1,2,4-Oxadiazole Derivatives: Discovery of New Farnesoid X Receptor (FXR) Antagonists/Pregnane X Receptor (PXR) Agonists” (Molecules, 2023).

Where “and” joins values, the source holds several entries; their conditions need not be identical. Equal entries are not always repeated.

Assay type in all cases: cell-based
One data set concerns the target T1, PXR (Homo sapiens, UniProt O75469).
T1 construct: expressed in transfected cells; host or cells: HepG2
T1 sequence (O75469 1-434): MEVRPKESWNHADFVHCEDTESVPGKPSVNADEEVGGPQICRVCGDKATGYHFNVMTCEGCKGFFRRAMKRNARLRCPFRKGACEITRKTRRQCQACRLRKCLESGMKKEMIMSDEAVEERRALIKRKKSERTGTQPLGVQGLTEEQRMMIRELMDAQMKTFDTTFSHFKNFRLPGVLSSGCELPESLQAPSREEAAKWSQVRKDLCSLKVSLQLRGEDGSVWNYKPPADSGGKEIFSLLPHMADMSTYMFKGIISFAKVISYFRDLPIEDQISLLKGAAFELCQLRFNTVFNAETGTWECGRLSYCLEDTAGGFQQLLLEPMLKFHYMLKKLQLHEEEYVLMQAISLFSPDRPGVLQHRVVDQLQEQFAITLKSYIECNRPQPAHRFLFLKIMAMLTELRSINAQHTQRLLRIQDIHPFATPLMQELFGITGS
T1 sequence (P19793 1-462 partner): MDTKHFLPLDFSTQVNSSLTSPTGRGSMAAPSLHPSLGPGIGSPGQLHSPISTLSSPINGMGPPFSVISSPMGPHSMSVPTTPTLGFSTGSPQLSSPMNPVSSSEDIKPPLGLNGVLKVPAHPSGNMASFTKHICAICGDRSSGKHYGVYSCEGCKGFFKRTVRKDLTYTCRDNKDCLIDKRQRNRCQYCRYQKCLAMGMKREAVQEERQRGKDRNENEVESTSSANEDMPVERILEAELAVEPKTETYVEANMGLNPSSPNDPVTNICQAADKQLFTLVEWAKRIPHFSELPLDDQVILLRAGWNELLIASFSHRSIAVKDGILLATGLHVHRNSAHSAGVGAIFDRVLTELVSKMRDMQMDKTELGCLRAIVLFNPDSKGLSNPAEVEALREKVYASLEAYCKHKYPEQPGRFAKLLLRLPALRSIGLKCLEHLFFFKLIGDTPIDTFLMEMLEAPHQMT
As to the kind of experiment: PXR luciferase reporter transactivation assay (agonism) on HepG2 cells. The following applies: concentration-response, mean ± SEM, at least three experiments.

The target of the next data set is T2, FXR (Homo sapiens, UniProt Q96RI1).
T2 construct: expressed in transfected cells; host or cells: HepG2
T2 sequence (Q96RI1 1-486): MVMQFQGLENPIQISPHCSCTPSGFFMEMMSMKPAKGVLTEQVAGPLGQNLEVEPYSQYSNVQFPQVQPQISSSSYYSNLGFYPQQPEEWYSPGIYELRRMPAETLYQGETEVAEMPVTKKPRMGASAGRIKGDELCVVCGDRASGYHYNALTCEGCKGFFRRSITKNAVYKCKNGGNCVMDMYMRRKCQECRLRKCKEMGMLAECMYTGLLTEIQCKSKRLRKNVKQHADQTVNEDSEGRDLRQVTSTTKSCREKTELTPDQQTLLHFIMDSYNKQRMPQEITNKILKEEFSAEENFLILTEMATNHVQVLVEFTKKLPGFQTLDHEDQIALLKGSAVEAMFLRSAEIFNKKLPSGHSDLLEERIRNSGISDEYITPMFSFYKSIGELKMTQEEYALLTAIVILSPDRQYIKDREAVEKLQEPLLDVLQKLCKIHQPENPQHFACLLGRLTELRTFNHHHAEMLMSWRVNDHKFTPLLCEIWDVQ
In words: FXR luciferase reporter transactivation assay (antagonism) on HepG2 cells. To be noted: at least three experiments; for FXR Antagonism Eff (%): HepG2 transactivation, compounds at 50 μM, percent inhibition of transactivation set at 100%, mean ± SD; for IC50: transactivation assay, concentration-response, mean ± SEM. The procedure: The antagonistic activity on FXR was investigated using HepG2 cells transfected with 100 ng of pSG5-FXR and pSG5-RXR, 200 ng of the reporter vector p(hsp27)-TK-LUC containing the FXR response element, and 100 ng of the pGL4.70 vector encoding the human Renilla gene used as a transfection control. […] In another experimental setting, HepG2 cells were transfected using 100 ng of pSG5-PXR, 100 ng of pSG5-RXR, and 100 ng of pGL4.70, along with the reporter vector pGL3(henance)PXRE. At 24 h post-transfection, cells were stimulated with rifaximin 10 μM (as a positive control) or compounds 2–11 (10 μM). The specificity of compounds 5 and 11 versus FXR and PXR was tested using HepG2 cells transiently transfected with 200 ng of the reporter vector p(UAS)5XTKLuc, 100 ng of a vector containing the ligand binding domain of LXRα or LXRβand 100 ng of pGL4.70, a vector encoding the human Renilla gene. At 24 h post-transfection, cells were stimulated for 18 h with GW3965 (5 μM), compounds 5 and 11 (10 μM), and the combination of GW3965 plus 5 or 11 (50 μM). Cellular lysate was assayed for luciferase and Renilla activities after 18 h using the Dual-Luciferase Reporter assay system (E1980, Promega, Madison, WI, USA). The activity of luciferase was measured using the Glomax 20/20 luminometer (Promega, Madison, WI, USA) and normalized with Renilla activities.
(Reporter assays use an easily measured gene product as a stand-in for the process of interest.)

The test system of data set [1] is Human-CaCo2 cells stimulated with TNFα. In words: qPCR of PXR and inflammatory cytokines in TNFα-stimulated CaCo2 cells. To be noted: TNFα 100 ng/mL plus compound 10 μM. The procedure: HepG2 and CaCo2 cell lines, obtained from ATCC, were routinely cultured in Eagle’s MEM and high-glucose DMEM, respectively, supplemented with 10% FBS, 1% glutamine, and penicillin/streptomycin. For in vitro experiments, HepG2 (2 × 106) cells were stimulated with 6-ECDCA at a concentration of 10 µM alone or in combination with compound 5 or 11, and CaCo2 cells were exposed to TNFα (100 ng/mL) alone or in combination with rifaximin, compound 5, or 11.
Total RNA was isolated from the HepG2 and CaCo2 cell lines using TRI reagent (Zymo Research) and Direct-zol™ RNA MicroPrep w/Zymo-Spin™ IIC Columns (Zymo Research, Irvine, CA, USA). After purification from genomic DNA using DNase I (Thermo Fisher Scientific, Waltham, MA, USA), 2 μg of RNA from each sample was reverse transcribed using Kit FastGene Scriptase Basic (Nippon Genetics, Mariaweilerstraße, Düren, Germany) in 20-μL of reaction volume, and 50 ng of cDNA was amplified in a 20-μL solution containing 200 nM of each primer and 10 μL of PowerUp™ SYBR™ Green Master Mix (Thermo Fisher Scientific, Waltham, MA, USA) using a Quantstudio 3 system (Applied Biosystems, Foster City, CA, USA). The relative mRNA expression was calculated according to the ΔCt method. The primer used were as follows (forward and reverse): hGapdh (for […]; rev […]), hBsep (for […]; rev […]), hOstα (for […]; rev […]), hNtcp (for […]; rev […]), hPxr (for GCAAGGGCTTTTTCAGGAG; rev GGGTCTTCCGGGTGATCT), hIl-8 (for […]; rev […]), hIl-1β (for […]; rev […]).

Usually EC50 stands for the midpoint of the concentration-response curve. Higher therefore signals lower potency in that assay. Broadly, the IC50 is the midpoint of a concentration-inhibition curve. Turning to `OCc1ccc(CN2CCC(c3nc(-c4ccc5ccccc5c4)no3)CC2)cc1` [Compound 11, 5-[1-(4-(Hydroxymethyl)benzyl)piperidin-4-yl]-3-(naphthalen-2-yl)-1,2,4-oxadiazole], the EC50 at PXR worked out at 7.5 ± 1 µM. On FXR, the “FXR Antagonism Eff (%)” value is 72% and 72 ± 6%; the half-maximal inhibitory concentration (IC50) is 4.4 ± 0.4 µM. In data set [1], the “Effect on proinflammatory factors caused by TNFα stimulation” value was “reduced changes in the production of proinflammatory factors”.

`CCCCCN1CCC(c2nc(-c3ccc4ccccc4c3)no2)CC1` [Compound 5, 3-(Naphthalen-2-yl)-5-(1-pentylpiperidin-4-yl)-1,2,4-oxadiazole] registered a half-maximal effective concentration (EC50) on PXR of 6.4 ± 0.1 µM. Further, at FXR, the “FXR Antagonism Eff (%)” value was 66% and 66 ± 1%; the IC50 was determined as 8.4 ± 2 µM. The “Effect on proinflammatory factors caused by TNFα stimulation” value in data set [1] was “reduced changes in the production of proinflammatory factors”.
